One block for each compound: values may come before it.
Tests used:
PRMT1 [1] = biological target: PRMT1 (Homo sapiens, UniProt Q99873); test: Stopped flow fluorescence assay of PRMT1 inhibition ([PRMT1] 0.2 µM, [SAM] 3.5 µM, [H4FL] 0.4 µM); assay type: biochemical;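 note: Stopped-flow traces of fluorescent H4FL peptide quenched on binding PRMT1 and restored on release, recorded 900 s, averaged over repeated drives and fit to a double-exponential model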
Source text: To obtain the IC50 of a specific inhibitor, the relative activities of the enzyme in presence of different concentrations of the inhibitor are required (equation 1).[37] […] By adding different concentrations of the inhibitor to the reaction mixture, the relative activity of the enzyme can be obtained by normalizing K to the reaction rate without the inhibitor, and then calculate the IC50 value using equation 1. In our stopped flow fluorescence assay, the reaction rate of Phase I and Phase II can be obtained by approximating and deriving the double-exponential equation (equation 2). In Phase I, during a very short period of time (where t is small), the curve is nearly linear, and the exponential equation can be approximately described as F1 = a · (−k1) · t. Therefore, the derivation of F1 equals –k1∙a, which is the slope of Phase I. Similarly, the curve of Phase II at early stage can be approximately described as F2 = b · (−k2) · t. This derivation of F2 equals –k2∙b, which is the slope of Phase II. The slopes at various inhibitor concentrations, normalized to the slope in the absence of inhibitor, can be used to obtain the corresponding relative enzyme activity from which the potency value (IC50) of the inhibitor can be calculated with equation 1.
In a stopped flow fluorescence assay, the binding of H4FL to PRMT1 (or the PRMT1—cofactor complex) quenches the peptide fluorescence, while release of the peptide restores the fluorescence. […] The widths of the entrance and exit slits of the monochromator were set to 0.5 mm. An equal volume of samples from two syringes was driven into the observation cell for mixing measurements. The H4FL concentration in all experiments was 0.4 μM. […] The fluorescent signal was recorded for 900 seconds, with 10,000 data points in total. Data from four to six drives were collected and averaged for each curve.
After averaging the shot data, the association time courses were fitted to a double-exponential function (equation 2) using GraphPad Prism (CA, USA). […] F is the fluorescence intensity at time t, k1, and k2 are the rate constants for Phase I and Phase II, a is the amplitude of the fluorescence change for k1, and b is the amplitude of the fluorescence change for k2. Simulation curves based on the values of a, b, k1, and k2 at fixed c = 1 were produced using Matlab. The IC50 value of inhibitors is determined by equation 1 using GraphPad Prism (CA, USA).

PRMT1 [2] = tested on: PRMT1; set-up: method as in earlier work; conditions: binary binding to PRMT1; ref 2 (supplement; Feng et al. 2011); cited from earlier work
PRMT1 [3] = conditions: PRMT1 catalysis, cited from earlier work

Chain of PRMT1 (Homo sapiens, UniProt Q99873) (Q99873 29-371): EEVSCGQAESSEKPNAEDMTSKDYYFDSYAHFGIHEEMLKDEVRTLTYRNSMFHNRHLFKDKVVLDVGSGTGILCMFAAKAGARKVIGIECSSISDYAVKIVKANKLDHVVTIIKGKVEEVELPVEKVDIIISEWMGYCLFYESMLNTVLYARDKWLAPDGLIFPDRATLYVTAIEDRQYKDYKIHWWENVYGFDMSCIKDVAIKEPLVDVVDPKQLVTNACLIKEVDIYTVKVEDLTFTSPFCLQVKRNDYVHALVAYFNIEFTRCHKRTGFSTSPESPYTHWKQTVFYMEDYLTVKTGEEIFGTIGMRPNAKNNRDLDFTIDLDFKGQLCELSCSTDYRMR

-b·k2 (slope of Phase II) (PRMT1 [1]; [H4R3Me2a] 0.025 µM): 0.000708 ± 1.5e-06 s⁻¹
a (amplitude, Phase I) (PRMT1 [1]; [H4R3Me2a] 0.025 µM): 0.1544 ± 3.91E-04
a·k1 (slope of Phase I) (PRMT1 [1]; [H4R3Me2a] 0.025 µM): 0.0108 ± 5.74e-05 s⁻¹
b (amplitude, Phase II) (PRMT1 [1]; [H4R3Me2a] 0.025 µM): -0.1795 ± 1.47E-04
k1 (rate constant, Phase I) (PRMT1 [1]; [H4R3Me2a] 0.025 µM): 0.06982 ± 3.27E-04 s^-1
k2 (rate constant, Phase II) (PRMT1 [1]; [H4R3Me2a] 0.025 µM): 0.003946 ± 7.72E-06 s^-1
-b·k2 (slope of Phase II) (PRMT1 [1]; [H4R3Me2a] 0.05 µM): 0.00064 ± 1.51e-06 s⁻¹
a (amplitude, Phase I) (PRMT1 [1]; [H4R3Me2a] 0.05 µM): 0.1589 ± 4.16E-04
a·k1 (slope of Phase I) (PRMT1 [1]; [H4R3Me2a] 0.05 µM): 0.0106 ± 5.8e-05 s⁻¹
b (amplitude, Phase II) (PRMT1 [1]; [H4R3Me2a] 0.05 µM): -0.1863 ± 1.43E-04
k1 (rate constant, Phase I) (PRMT1 [1]; [H4R3Me2a] 0.05 µM): 0.06665 ± 3.21E-04 s^-1
k2 (rate constant, Phase II) (PRMT1 [1]; [H4R3Me2a] 0.05 µM): 0.003437 ± 7.65E-06 s^-1
-b·k2 (slope of Phase II) (PRMT1 [1]; [H4R3Me2a] 0.1 µM): 0.000608 ± 1.59e-06 s⁻¹
a (amplitude, Phase I) (PRMT1 [1]; [H4R3Me2a] 0.1 µM): 0.1731 ± 3.91E-04
a·k1 (slope of Phase I) (PRMT1 [1]; [H4R3Me2a] 0.1 µM): 0.00927 ± 4.52e-05 s⁻¹
b (amplitude, Phase II) (PRMT1 [1]; [H4R3Me2a] 0.1 µM): -0.1960 ± 1.50E-04
k1 (rate constant, Phase I) (PRMT1 [1]; [H4R3Me2a] 0.1 µM): 0.05356 ± 2.31E-04 s^-1
k2 (rate constant, Phase II) (PRMT1 [1]; [H4R3Me2a] 0.1 µM): 0.003104 ± 7.73E-06 s^-1
-b·k2 (slope of Phase II) (PRMT1 [1]; [H4R3Me2a] 0.25 µM): 0.000613 ± 1.75e-06 s⁻¹
a (amplitude, Phase I) (PRMT1 [1]; [H4R3Me2a] 0.25 µM): 0.1692 ± 4.25E-04
a·k1 (slope of Phase I) (PRMT1 [1]; [H4R3Me2a] 0.25 µM): 0.00914 ± 4.96e-05 s⁻¹
b (amplitude, Phase II) (PRMT1 [1]; [H4R3Me2a] 0.25 µM): -0.1883 ± 1.69E-04
k1 (rate constant, Phase I) (PRMT1 [1]; [H4R3Me2a] 0.25 µM): 0.054 ± 2.60E-04 s^-1
k2 (rate constant, Phase II) (PRMT1 [1]; [H4R3Me2a] 0.25 µM): 0.003253 ± 8.83E-06 s^-1
-b·k2 (slope of Phase II) (PRMT1 [1]; [H4R3Me2a] 0.5 µM): 0.000482 ± 2.06e-06 s⁻¹
a (amplitude, Phase I) (PRMT1 [1]; [H4R3Me2a] 0.5 µM): 0.1282 ± 4.32E-04
a·k1 (slope of Phase I) (PRMT1 [1]; [H4R3Me2a] 0.5 µM): 0.00584 ± 4.38e-05 s⁻¹
b (amplitude, Phase II) (PRMT1 [1]; [H4R3Me2a] 0.5 µM): -0.1431 ± 2.10E-04
k1 (rate constant, Phase I) (PRMT1 [1]; [H4R3Me2a] 0.5 µM): 0.04557 ± 3.06E-04 s^-1
k2 (rate constant, Phase II) (PRMT1 [1]; [H4R3Me2a] 0.5 µM): 0.00337 ± 1.35E-05 s^-1
-b·k2 (slope of Phase II) (PRMT1 [1]; [H4R3Me2a] 1 µM): 0.000195 ± 1.96e-06 s⁻¹
a (amplitude, Phase I) (PRMT1 [1]; [H4R3Me2a] 1 µM): 0.1156 ± 3.30E-04
a·k1 (slope of Phase I) (PRMT1 [1]; [H4R3Me2a] 1 µM): 0.0041 ± 2.6e-05 s⁻¹
b (amplitude, Phase II) (PRMT1 [1]; [H4R3Me2a] 1 µM): -0.1396 ± 5.20E-04
k1 (rate constant, Phase I) (PRMT1 [1]; [H4R3Me2a] 1 µM): 0.0355 ± 2.01E-04 s^-1
k2 (rate constant, Phase II) (PRMT1 [1]; [H4R3Me2a] 1 µM): 0.001394 ± 1.31E-05 s^-1
-b·k2 (slope of Phase II) (PRMT1 [1]; [H4R3Me2a] 2 µM): 0.000103 ± 2.25e-06 s⁻¹
a (amplitude, Phase I) (PRMT1 [1]; [H4R3Me2a] 2 µM): 0.0723 ± 3.03E-04
a·k1 (slope of Phase I) (PRMT1 [1]; [H4R3Me2a] 2 µM): 0.00179 ± 1.72e-05 s⁻¹
b (amplitude, Phase II) (PRMT1 [1]; [H4R3Me2a] 2 µM): -0.07524 ± 5.65E-04
k1 (rate constant, Phase I) (PRMT1 [1]; [H4R3Me2a] 2 µM): 0.02475 ± 2.15E-04 s^-1
k2 (rate constant, Phase II) (PRMT1 [1]; [H4R3Me2a] 2 µM): 0.001365 ± 2.82E-05 s^-1
Compound: acetyl-SGRme2aGKGGKGLGKGGAKRHRKVL [H4R3me2a]

-b·k2 (slope of Phase II) (PRMT1 [1]; [SAH] 0.1 µM): 0.000677 ± 1.35e-06 s⁻¹
a (amplitude, Phase I) (PRMT1 [1]; [SAH] 0.1 µM): 0.2027 ± 4.00E-04
a·k1 (slope of Phase I) (PRMT1 [1]; [SAH] 0.1 µM): 0.0122 ± 4.9e-05 s⁻¹
b (amplitude, Phase II) (PRMT1 [1]; [SAH] 0.1 µM): -0.2201 ± 1.26E-04
k1 (rate constant, Phase I) (PRMT1 [1]; [SAH] 0.1 µM): 0.05995 ± 2.11E-04 s^-1
k2 (rate constant, Phase II) (PRMT1 [1]; [SAH] 0.1 µM): 0.003078 ± 5.86E-06 s^-1
-b·k2 (slope of Phase II) (PRMT1 [1]; [SAH] 0.25 µM): 0.000561 ± 1.3e-06 s⁻¹
a (amplitude, Phase I) (PRMT1 [1]; [SAH] 0.25 µM): 0.2214 ± 4.39E-04
a·k1 (slope of Phase I) (PRMT1 [1]; [SAH] 0.25 µM): 0.0144 ± 5.59e-05 s⁻¹
b (amplitude, Phase II) (PRMT1 [1]; [SAH] 0.25 µM): -0.2306 ± 1.33E-04
k1 (rate constant, Phase I) (PRMT1 [1]; [SAH] 0.25 µM): 0.06487 ± 2.18E-04 s^-1
k2 (rate constant, Phase II) (PRMT1 [1]; [SAH] 0.25 µM): 0.002434 ± 5.47E-06 s^-1
-b·k2 (slope of Phase II) (PRMT1 [1]; [SAH] 0.5 µM): 0.000352 ± 1.25e-06 s⁻¹
a (amplitude, Phase I) (PRMT1 [1]; [SAH] 0.5 µM): 0.2658 ± 3.49E-04
b (amplitude, Phase II) (PRMT1 [1]; [SAH] 0.5 µM): -0.2629 ± 3.89E-04
k1 (rate constant, Phase I) (PRMT1 [1]; [SAH] 0.5 µM): 0.06324 ± 1.36E-04 s^-1
k2 (rate constant, Phase II) (PRMT1 [1]; [SAH] 0.5 µM): 0.00134 ± 4.32E-06 s^-1
-b·k2 (slope of Phase II) (PRMT1 [1]; [SAH] 1 µM): 0.000234 ± 1.38e-06 s⁻¹
a (amplitude, Phase I) (PRMT1 [1]; [SAH] 1 µM): 0.2726 ± 3.65E-04
a·k1 (slope of Phase I) (PRMT1 [1]; [SAH] 1 µM): 0.0186 ± 4.67e-05 s⁻¹
b (amplitude, Phase II) (PRMT1 [1]; [SAH] 1 µM): -0.2134 ± 6.03E-04
k1 (rate constant, Phase I) (PRMT1 [1]; [SAH] 1 µM): 0.06815 ± 1.45E-04 s^-1
k2 (rate constant, Phase II) (PRMT1 [1]; [SAH] 1 µM): 0.001095 ± 5.70E-06 s^-1
-b·k2 (slope of Phase II) (PRMT1 [1]; [SAH] 2.5 µM): 0.00011 ± 2.16e-06 s⁻¹
a (amplitude, Phase I) (PRMT1 [1]; [SAH] 2.5 µM): 0.2961 ± 3.73E-04
a·k1 (slope of Phase I) (PRMT1 [1]; [SAH] 2.5 µM): 0.0213 ± 4.93e-05 s⁻¹
b (amplitude, Phase II) (PRMT1 [1]; [SAH] 2.5 µM): -0.1862 ± 2.16E-03
k1 (rate constant, Phase I) (PRMT1 [1]; [SAH] 2.5 µM): 0.07177 ± 1.40E-04 s^-1
k2 (rate constant, Phase II) (PRMT1 [1]; [SAH] 2.5 µM): 0.0005933 ± 9.36E-06 s^-1
-b·k2 (slope of Phase II) (PRMT1 [1]; [SAH] 5 µM): 5.14e-05 ± 8.08e-06 s⁻¹
a (amplitude, Phase I) (PRMT1 [1]; [SAH] 5 µM): 0.2962 ± 3.74E-04
b (amplitude, Phase II) (PRMT1 [1]; [SAH] 5 µM): -0.3000 ± 3.18E-02
k1 (rate constant, Phase I) (PRMT1 [1]; [SAH] 5 µM): 0.05757 ± 1.17E-04 s^-1
k2 (rate constant, Phase II) (PRMT1 [1]; [SAH] 5 µM): 0.0001714 ± 1.98E-05 s^-1
-b·k2 (slope of Phase II) (PRMT1 [1]; [SAH] 10 µM): 2.22e-05 ± 2.71e-05 s⁻¹
a (amplitude, Phase I) (PRMT1 [1]; [SAH] 10 µM): 0.2774 ± 5.02E-04
b (amplitude, Phase II) (PRMT1 [1]; [SAH] 10 µM): -0.2999 ± 2.24E-01
increasing trend of Phase II (PRMT1 [1]; [SAH] 10 µM): almost abolished
k1 (rate constant, Phase I) (PRMT1 [1]; [SAH] 10 µM): 0.05889 ± 1.70E-04 s^-1
k2 (rate constant, Phase II) (PRMT1 [1]; [SAH] 10 µM): 7.42e-05 ± 5.74e-05 s⁻¹
Compound: Nc1ncnc2c1ncn2[C@@H]1O[C@H](CSCC[C@H](N)C(=O)O)[C@@H](O)[C@H]1O [SAH, S-adenosyl homocysteine]

Compound: acetyl-SGRGKGGKGK(FL)GKGGAKRHRK [H4FL]
koff (PRMT1 [2]): 333 s⁻¹
kon (PRMT1 [2]): 4e+07 M⁻¹ s⁻¹
kcat (PRMT1 [3]): 0.00717 ± 0.00017 s⁻¹
Km (PRMT1 [3]; read-out: Km of peptide substrate): 0.5 ± 0.05 µM

Compound: acetyl-SGRmeGKGGKGK(FL)GKGGAKRHRK [H4FLme1]
koff (PRMT1 [2]): 292 s⁻¹
kon (PRMT1 [2]): 2.3e+07 M⁻¹ s⁻¹

From paper PMC5843908, “Detection of PRMT1 inhibitors with stopped flow fluorescence” (Signal Transduction and Targeted Therapy, 2018)
